Laboratory results published in ChEMBL document CHEMBL1949642 (Bioorg Med Chem Lett, 2012).
In brackets after ≈: the same amount, converted by molar mass. Activity calls are given as the source filed them. No cut-off for these calls is given here.

Tests used:
[1] = target: T1, C-C chemokine receptor type 5 (Homo sapiens, UniProt P51681); assay: Displacement of [125I]MIP-1alpha from human recombinant CCR5 expressed in CHO cells; type: cell-based
Target sequence in this assay (P51681 whole entry): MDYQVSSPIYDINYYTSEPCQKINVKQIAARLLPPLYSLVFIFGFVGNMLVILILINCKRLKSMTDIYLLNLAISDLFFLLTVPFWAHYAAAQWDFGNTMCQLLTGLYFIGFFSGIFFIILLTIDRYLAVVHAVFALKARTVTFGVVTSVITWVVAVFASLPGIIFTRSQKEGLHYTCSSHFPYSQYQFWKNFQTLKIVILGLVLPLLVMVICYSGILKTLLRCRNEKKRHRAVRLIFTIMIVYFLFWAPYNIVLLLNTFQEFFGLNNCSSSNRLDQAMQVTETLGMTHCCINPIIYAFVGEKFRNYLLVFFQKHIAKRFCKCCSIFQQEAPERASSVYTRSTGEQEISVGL

[2] = Intrinsic clearance in human liver microsomes; conditions: liver microsomes
[3] = Lipophilicity, log D of the compound at pH 7.4; conditions: buffer
[4] = Clearance in rat at 1 to 2 mg/kg, iv; type: ADME, organism-based; set-up: dose 1-2 mg/kg, route intravenous; conditions: in vivo
[5] = Volume of distribution at steady state in rat at 1 to 2 mg/kg, iv; type: ADME, organism-based; set-up: dose 1-2 mg/kg, route intravenous; conditions: in vivo, read-out: Vdss
[6] = Half life in rat at 1 to 2 mg/kg, iv; type: ADME, organism-based; set-up: dose 1-2 mg/kg, route intravenous; conditions: in vivo
[7] = Oral bioavailability in rat at 2 to 5 mg/kg; type: ADME, organism-based; conditions: in vivo
[8] = Clearance in male dog at 1 to 2 mg/kg, iv; type: ADME, organism-based, Canis lupus familiaris; set-up: dose 1-2 mg/kg, route intravenous; conditions: in vivo
[9] = Volume of distribution at steady state in male dog at 1 to 2 mg/kg, iv; type: ADME, organism-based, Canis lupus familiaris; set-up: dose 1-2 mg/kg, route intravenous; conditions: in vivo, read-out: Vdss
[10] = Half life in male dog at 1 to 2 mg/kg, iv; type: ADME, organism-based, Canis lupus familiaris; set-up: dose 1-2 mg/kg, route intravenous; conditions: in vivo
[11] = Oral bioavailability in male dog at 2 to 5 mg/kg; type: ADME, organism-based, Canis lupus familiaris; conditions: in vivo
[12] = Clearance in female dog at 1 to 2 mg/kg, iv; type: ADME, organism-based, Canis lupus familiaris; set-up: dose 1-2 mg/kg, route intravenous; conditions: in vivo
[13] = Volume of distribution at steady state in female dog at 1 to 2 mg/kg, iv; type: ADME, organism-based, Canis lupus familiaris; set-up: dose 1-2 mg/kg, route intravenous; conditions: in vivo, read-out: Vdss
[14] = Half life in female dog at 1 to 2 mg/kg, iv; type: ADME, organism-based, Canis lupus familiaris; set-up: dose 1-2 mg/kg, route intravenous; conditions: in vivo
[15] = Oral bioavailability in female dog at 2 to 5 mg/kg; type: ADME, organism-based, Canis lupus familiaris; conditions: in vivo
[16] = target: T1, C-C chemokine receptor type 5; assay: Antagonist activity at CCR5 in human whole blood assessed as inhibition of MIP-1beta-induced receptor internalization; type: functional, tissue-based
Target sequence in this assay (P51681 whole entry, looked up): as the sequence (P51681 whole entry) above

[17] = Dissociation constant, pKa of the compound; type: physicochemical
[18] = Aqueous solubility of the compound at pH 7.4; type: physicochemical; conditions: buffer
Cytochrome P450 1A1 = target: T2, Cytochrome P450 1A1 (Homo sapiens, UniProt P04798); assay: Inhibition of CYP1A1; type: ADME
T2 sequence (P04798 whole entry): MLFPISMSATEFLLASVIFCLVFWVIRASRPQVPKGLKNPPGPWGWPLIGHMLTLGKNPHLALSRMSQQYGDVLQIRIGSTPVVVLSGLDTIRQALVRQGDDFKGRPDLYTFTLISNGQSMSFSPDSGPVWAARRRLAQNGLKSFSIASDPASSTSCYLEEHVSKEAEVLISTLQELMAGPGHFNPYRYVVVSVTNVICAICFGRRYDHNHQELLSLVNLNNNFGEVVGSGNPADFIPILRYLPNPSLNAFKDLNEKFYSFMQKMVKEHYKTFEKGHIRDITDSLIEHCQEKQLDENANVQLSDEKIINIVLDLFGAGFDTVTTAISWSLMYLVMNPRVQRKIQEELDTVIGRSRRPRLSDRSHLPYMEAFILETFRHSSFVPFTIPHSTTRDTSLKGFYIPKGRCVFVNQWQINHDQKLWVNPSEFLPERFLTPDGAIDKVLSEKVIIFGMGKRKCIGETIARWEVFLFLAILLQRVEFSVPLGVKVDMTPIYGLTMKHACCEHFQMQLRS

Cytochrome P450 2C9 = Cytochrome P450 2C9 (Homo sapiens, UniProt P11712); assay: Inhibition of CYP2C9; type: ADME
Chain of Cytochrome P450 2C9 (P11712 whole entry): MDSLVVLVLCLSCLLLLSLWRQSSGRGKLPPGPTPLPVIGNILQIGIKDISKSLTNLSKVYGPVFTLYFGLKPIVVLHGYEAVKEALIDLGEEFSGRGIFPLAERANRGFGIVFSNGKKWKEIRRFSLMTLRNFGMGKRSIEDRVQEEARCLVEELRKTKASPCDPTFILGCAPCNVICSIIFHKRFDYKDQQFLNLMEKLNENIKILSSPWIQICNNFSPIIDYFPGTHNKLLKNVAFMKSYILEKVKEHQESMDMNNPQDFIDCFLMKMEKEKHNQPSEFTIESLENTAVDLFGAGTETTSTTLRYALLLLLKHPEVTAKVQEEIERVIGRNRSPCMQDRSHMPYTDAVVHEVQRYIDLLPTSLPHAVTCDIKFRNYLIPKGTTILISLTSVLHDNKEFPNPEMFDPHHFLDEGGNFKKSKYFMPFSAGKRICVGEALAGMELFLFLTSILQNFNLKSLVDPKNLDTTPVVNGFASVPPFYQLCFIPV

Cytochrome P450 2C19 = Cytochrome P450 2C19 (Homo sapiens, UniProt P33261); assay: Inhibition of CYP2C19; type: ADME
Chain of Cytochrome P450 2C19 (P33261 whole entry): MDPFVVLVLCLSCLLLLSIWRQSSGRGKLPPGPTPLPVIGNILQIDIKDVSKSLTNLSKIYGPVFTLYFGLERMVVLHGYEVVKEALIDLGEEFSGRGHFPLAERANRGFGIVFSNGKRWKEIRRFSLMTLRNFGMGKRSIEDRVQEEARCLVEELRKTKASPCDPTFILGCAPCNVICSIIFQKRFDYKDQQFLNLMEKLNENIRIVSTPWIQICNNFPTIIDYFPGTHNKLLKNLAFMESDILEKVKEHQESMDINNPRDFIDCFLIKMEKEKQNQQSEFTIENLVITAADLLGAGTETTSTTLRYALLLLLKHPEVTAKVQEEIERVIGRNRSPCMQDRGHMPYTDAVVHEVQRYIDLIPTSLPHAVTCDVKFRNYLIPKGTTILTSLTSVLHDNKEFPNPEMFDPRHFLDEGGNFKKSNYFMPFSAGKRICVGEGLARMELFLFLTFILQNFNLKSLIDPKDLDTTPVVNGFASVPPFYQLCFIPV

Cytochrome P450 2D6 = Cytochrome P450 2D6 (Homo sapiens, UniProt P10635); assay: Inhibition of CYP2D6; type: ADME
Chain of Cytochrome P450 2D6 (P10635 whole entry): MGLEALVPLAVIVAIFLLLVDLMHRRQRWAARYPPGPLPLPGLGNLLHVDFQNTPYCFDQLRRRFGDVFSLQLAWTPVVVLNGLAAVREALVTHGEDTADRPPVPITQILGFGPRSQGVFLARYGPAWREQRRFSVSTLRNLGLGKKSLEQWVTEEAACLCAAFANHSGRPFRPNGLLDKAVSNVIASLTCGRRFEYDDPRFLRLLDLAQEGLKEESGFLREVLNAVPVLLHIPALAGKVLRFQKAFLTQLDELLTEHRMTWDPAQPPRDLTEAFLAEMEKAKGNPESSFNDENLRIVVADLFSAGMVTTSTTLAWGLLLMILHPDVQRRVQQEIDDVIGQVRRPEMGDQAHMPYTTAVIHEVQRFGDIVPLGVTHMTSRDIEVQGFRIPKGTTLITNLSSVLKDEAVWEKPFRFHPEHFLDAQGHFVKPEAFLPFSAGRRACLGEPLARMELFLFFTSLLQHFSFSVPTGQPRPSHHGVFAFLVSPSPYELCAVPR

Cytochrome P450 3A4 = Cytochrome P450 3A4 (Homo sapiens, UniProt P08684); assay: Inhibition of CYP3A4; type: ADME
Chain of Cytochrome P450 3A4 (P08684 whole entry): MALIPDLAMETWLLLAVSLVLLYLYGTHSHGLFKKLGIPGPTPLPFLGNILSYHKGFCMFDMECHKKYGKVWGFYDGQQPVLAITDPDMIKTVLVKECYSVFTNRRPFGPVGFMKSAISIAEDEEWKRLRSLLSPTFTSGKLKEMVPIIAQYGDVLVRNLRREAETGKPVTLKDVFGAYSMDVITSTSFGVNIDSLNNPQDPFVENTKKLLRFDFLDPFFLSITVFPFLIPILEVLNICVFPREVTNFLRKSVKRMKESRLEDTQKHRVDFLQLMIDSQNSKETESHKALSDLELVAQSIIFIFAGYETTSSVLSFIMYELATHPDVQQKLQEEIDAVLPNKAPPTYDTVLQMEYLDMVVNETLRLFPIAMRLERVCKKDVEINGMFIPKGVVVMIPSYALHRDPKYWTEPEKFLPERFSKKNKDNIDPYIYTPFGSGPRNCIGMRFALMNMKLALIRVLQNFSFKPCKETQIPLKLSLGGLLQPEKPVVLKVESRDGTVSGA

[19] = Apparent permeability from apical to basal side of human Caco2 cells at 10 uM; type: ADME, cell-based; conditions: Caco-2
[20] = Apparent permeability from basal to apical side of human Caco2 cells at 10 uM; type: ADME, cell-based; conditions: Caco-2
[21] = Apparent permeability from apical to basal side of human Caco2 cells at 100 uM; type: ADME, cell-based; conditions: Caco-2
[22] = Apparent permeability from basal to apical side of human Caco2 cells at 100 uM; type: ADME, cell-based; conditions: Caco-2
[23] = Fraction unbound in human plasma; type: ADME, cell-free
Homo sapiens = organism: Homo sapiens; assay: Antiarthritis activity in rheumatoid arthritis patient at 150 mg; type: functional, organism-based
[24] = Plasma protein binding in human; type: ADME, cell-free; conditions: read-out: PPB (converted)

Work on `CCN(C(=O)Cc1ccc(S(C)(=O)=O)cc1)C1CCN(CC[C@@H](c2cc(F)cc(F)c2)C2CCN(S(C)(=O)=O)CC2)CC1` [AZD5672] yielded an IC50 [1] of 0.00026 µM, a microsomal CLint [2] of 18 µL/min/mg and a logD [3] of 1.5. For the same compound, the clearance [4] was 38 mL/min/kg, the Vd [5] was 5 L/kg and the half-life [6] was 2.1 h. The bioavailability [7] was 41%, the clearance [8] was 15 mL/min/kg and the Vd [9] was 4.5 L/kg. It also gave a half-life [10] of 3.9 h, a bioavailability [11] of 46% and a clearance [12] of 22 mL/min/kg. For the same compound, the Vd [13] was 5.8 L/kg, the half-life [14] was 3.8 h and the bioavailability [15] was 51%. It also gave an A2 [16] of 0.76 nM, a pKa [17] of 8.4 and a solubility [18] of 2700 µM (≈ 1730 µg/mL). The IC50 (Cytochrome P450 1A1) was greater than 50 µM, the IC50 (Cytochrome P450 2C9) was greater than 50 µM and the IC50 (Cytochrome P450 2C19) was greater than 50 µM. The IC50 (Cytochrome P450 2D6) was 23 µM, the IC50 (Cytochrome P450 3A4) was 9 µM and the Papp A→B at 10 µM [19] was 0.7 ×10⁻⁶ cm/s. It also gave a Papp B→A at 10 µM [20] of 9.2 ×10⁻⁶ cm/s, a Papp A→B at 100 µM [21] of 1.4 ×10⁻⁶ cm/s and a Papp B→A at 100 µM [22] of 11 ×10⁻⁶ cm/s. For the same compound, the fraction unbound [23] was 0.08, the Activity (Homo sapiens) was “inactive” and the fraction unbound [24] was 0.08.
